Results published in US8815321B2, “Geranylamine derivatives as flavouring agents” (Givaudan S.A., priority 2009, dated 2014).

Columns and labels:
Type in all cases: in vivo, human
[1] = system: umami-taste; assay: Sensory panel tasting of flavoured potato chips; settings: for taste description of potato chips: trained sensory panel of 20 women
Description: Plain potato chips were prepared. One part was flavoured with 1.2% sodium chloride (sample A) One part was flavoured with 1.2% sodium chloride and 0.3% mono sodium glutamate (sample b) One part was flavoured with 1.2% sodium chloride and 25 ppm geranyl lactamide (sample C). The samples were tasted by a trained sensory panel composed of 20 women aged between 30 and 60.

[2] = system: umami-taste; assay: Flavourist tasting of tomato ketchup; settings: tomato ketchup with 20 ppm geranyl lactamide; flavourists (2 male, 2 female)
Description: A tomato ketchup was prepared from 19% tomato paste (28-30% dry weight), 8% of vinegar (15%), 3% of sodium chloride, 20% of sugar and 50% of water. To one half of the batch was added 20 ppm of geranyl lactamide.

[3] = system: umami-taste; assay: Sensory panel tasting of 0.3% NaCl and 0.03% MSG solution; settings: Solution B: 0.3% NaCl, 0.03% MSG and 10 ppm geranyl lactamide, trained sensory panel of 20 women, Solution A without compound: salty
Description: Two solutions were prepared: A a solution of 0.3% NaCl and 0.03% MSG B a solution of 0.3% NaCl, 0.03% MSG and 10 ppm geranyl lactamide The samples were tasted by a trained sensory panel composed of 20 women aged between 30 and 60.

[4] = system: umami-taste; assay: Flavourist tasting of tomato soup; settings: tomato soup containing 15 ppm geranyl lactamide; flavourists (2 male, 2 female)
Description: A tomato soup mix was prepared from 9.4 g of sodium chloride, 1 g of mono sodium glutamate, 0.08 g ribonucleotides (ex yeast), 32 g of tomato powder (ex […]), 25.1 g of glucose, 21 g of starch (Ultrasperse 5 ex National Starch), 5 g of palm fat powder, 3 g of yeast powder, 1 g of onion powder, 0.15 g of carrot powder, 0.05 g of ground white pepper, 0.3 g of celery extract powder, 0.05 g of ground laurel leaf powder, and 1.85 g of sucrose. 25 G of the well mixed ingredients was added to 250 g of boiling water and stirred until completely dissolved. The reference soup was compared with a batch of the same soup containing 15 ppm of geranyl lactamide.

[5] = system: umami-taste; assay: Sensory panel tasting of 0.3% NaCl solution; settings: Solution B: 0.3% NaCl and 10 ppm geranyl lactamide; trained sensory panel of 20 women; Solution A (0.3% NaCl only): salty
Description: Two solutions were prepared: A a solution of 0.3% NaCl B a solution of 0.3% NaCl and 10 ppm geranyl lactamide The samples were tasted by a trained sensory panel composed of 20 women aged between 30 and 60.

N[C@@H](CCC(=O)O)C(=O)[O-].[Na+] [mono sodium glutamate, reference compound]
taste description of potato chips ([1]; sample B: 1.2% sodium chloride and 0.3% mono sodium glutamate): salty and umami

CC(C)=CCC/C(C)=C/CNC(=O)C(C)O (stereo not shown) [geranyl lactamide]
taste of test ketchup compared with base ketchup [2]: clearly more umami, more salty and had a pleasant savoury note
taste description (findings of the panel) [3]: salty, umami, more bouillon-like, more complex, less sweet
taste of test soup compared with reference soup [4]: more umami, had a long-lasting savoury aspect, was more salty and was more complex than the base soup
panel preference among potato chip samples ([1]; sample C (1.2% sodium chloride and 25 ppm geranyl lactamide) vs sample A (NaCl) and sample B (NaCl and 0.3% MSG)): preferred over the other two samples
taste description of potato chips ([1]; sample C: 1.2% sodium chloride and 25 ppm geranyl lactamide): salty, umami, long lasting, savoury, bouillon
taste description (findings of the panel) [5]: salty, umami
